Experimental data published in PubChem BioAssay (NCI).
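Exposure lasted 48 hours, with cells grown in 96-well plates and compounds tested at five concentrations. At the GI50, growth is halved. Definition used: TGI = concentration required for complete inhibition of growth.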

Assays:
Assay in all cases: inhibition of tumour cell growth, NCI panel, 48 h
[1] = system: HOP-62 NSCLC
[2] = system: K-562 leukemia
[3] = system: SK-MEL-5 melanoma
[4] = system: SF-539 CNS
[5] = system: SK-MEL-2 melanoma
[6] = system: NCI-H460 lung
[7] = system: HCT-116 colon
[8] = system: KM12 colon
[9] = system: HT29 colon
[10] = system: HCC-2998 colon
[11] = system: IGROV1 ovarian
[12] = system: ACHN renal
[13] = system: NCI/ADR-RES ovarian
[14] = system: SK-MEL-28 melanoma
[15] = system: SNB-75 CNS
[16] = system: OVCAR-5 ovarian
[17] = system: T-47D breast
[18] = system: LOX IMVI melanoma
[19] = system: MALME-3M melanoma
[20] = system: HCT-15 colon
[21] = system: HS 578T breast
[22] = system: NCI-H226 lung
[23] = system: BT-549 breast
[24] = system: 786-0 renal
[25] = system: U251 CNS
[26] = system: MDA-MB-435
[27] = system: MOLT-4 leukemia
[28] = system: CAKI-1 renal
[29] = system: HOP-92 NSCLC
[30] = system: MCF7 breast
[31] = system: OVCAR-4 ovarian
[32] = system: UO-31 renal
[33] = system: A498 renal
[34] = system: CCRF-CEM leukemia
[35] = system: UACC-62 melanoma
[36] = system: RPMI-8226 leukemia
[37] = system: RXF 393 renal
[38] = system: SN12C renal
[39] = system: PC-3 prostate
[40] = system: M14 melanoma
[41] = system: A549 NSCLC
[42] = system: SW-620 colon
[43] = system: SR leukemia
[44] = system: NCI-H522 lung
[45] = system: TK-10 renal
[46] = system: SNB-19 CNS
[47] = system: COLO 205 colon
[48] = system: HL-60(TB) leukemia
[49] = system: SK-OV-3 ovarian
[50] = system: NCI-H23 lung
[51] = system: SF-268 CNS
[52] = system: SF-295 CNS
[53] = system: OVCAR-3 ovarian
[54] = system: MDA-MB-231 breast
[55] = system: DU-145 prostate
[56] = system: EKVX NSCLC
[57] = system: UACC-257 melanoma

Nc1cc2ccccc2c(O)c1O
GI50 [1]: 15.7 µM | TGI [1]: 30.1 µM | GI50 [2]: 2.59 µM | TGI [2]: 8.11 µM | GI50 [3]: 15.1 µM | TGI [3]: 29.3 µM | GI50 [4]: 1.79 µM | TGI [4]: 3.32 µM | GI50 [5]: 14.4 µM | TGI [5]: 33.1 µM | GI50 [6]: 13 µM | TGI [6]: 32.1 µM | GI50 [7]: 2.07 µM | TGI [7]: 4.5 µM | GI50 [8]: 5.24 µM | TGI [8]: 18.9 µM | GI50 [9]: 19.6 µM | TGI [9]: 41.8 µM | GI50 [10]: 12.8 µM | TGI [10]: 27.1 µM | GI50 [11]: 3.98 µM | TGI [11]: 16.3 µM | GI50 [12]: 1.69 µM | TGI [12]: 3.54 µM | GI50 [13]: 2.37 µM | TGI [13]: 6.21 µM | GI50 [14]: 12.8 µM | TGI [14]: 27.4 µM | GI50 [15]: 1.94 µM | TGI [15]: 18.4 µM | GI50 [16]: 3.13 µM | TGI [16]: 13.5 µM | GI50 [17]: 2.71 µM | TGI [17]: 7.69 µM | GI50 [18]: 1.59 µM | TGI [18]: 2.94 µM | GI50 [19]: 1.87 µM | TGI [19]: 3.83 µM | GI50 [20]: 1.9 µM | TGI [20]: 4.08 µM | GI50 [21]: 5.7 µM | TGI [21]: 96.2 µM | GI50 [22]: 2.36 µM | TGI [22]: 5.84 µM | GI50 [23]: 13.3 µM | TGI [23]: 26.1 µM | GI50 [24]: 1.85 µM | TGI [24]: 3.28 µM | GI50 [25]: 1.91 µM | TGI [25]: 3.48 µM | GI50 [26]: 1.83 µM | TGI [26]: 3.38 µM | GI50 [27]: 2.49 µM | TGI [27]: 6.27 µM | GI50 [28]: 1.67 µM | TGI [28]: 3.1 µM | GI50 [29]: 1.96 µM | TGI [29]: 5.75 µM | GI50 [30]: 1.88 µM | TGI [30]: 4.32 µM | GI50 [31]: 1.53 µM | TGI [31]: 2.88 µM | GI50 [32]: 2.53 µM | TGI [32]: 10.3 µM | GI50 [33]: 16.1 µM | TGI [33]: 30.5 µM | GI50 [34]: 3 µM | TGI [34]: 7.85 µM | GI50 [35]: 5.65 µM | TGI [35]: 18.7 µM | GI50 [36]: 2.72 µM | TGI [36]: 7.13 µM | GI50 [37]: 1.83 µM | TGI [37]: 3.25 µM | GI50 [38]: 2.13 µM | TGI [38]: 4.78 µM | GI50 [39]: 1.73 µM | TGI [39]: 3.91 µM | GI50 [40]: 3.35 µM | TGI [40]: 12.3 µM | GI50 [41]: 20.5 µM | TGI [41]: 41.4 µM | GI50 [42]: 2.08 µM | TGI [42]: 4.33 µM | GI50 [43]: 3.16 µM | TGI [43]: 13.2 µM | GI50 [44]: 1.97 µM | TGI [44]: 3.94 µM | GI50 [45]: 17.9 µM | TGI [45]: 32.2 µM | GI50 [46]: 15.6 µM | TGI [46]: 31.9 µM | GI50 [47]: 15 µM | TGI [47]: 31.5 µM | GI50 [48]: 2.08 µM | TGI [48]: 5.77 µM | GI50 [49]: 15.4 µM | TGI [49]: 29 µM | GI50 [50]: 3.5 µM | TGI [50]: 17.9 µM | GI50 [51]: 1.78 µM | TGI [51]: 3.59 µM | GI50 [52]: 15.7 µM | TGI [52]: 29.8 µM | GI50 [53]: 1.74 µM | TGI [53]: 3.52 µM | GI50 [54]: 1.96 µM | TGI [54]: 5.22 µM | GI50 [55]: 13.4 µM | TGI [55]: 27.4 µM | GI50 [56]: 10.7 µM | TGI [56]: 22.7 µM | GI50 [57]: 5.31 µM | TGI [57]: 18.1 µM
